Data on one compound can be found in EP0783890A1, “Use of 2-methyl-4-(4-methyl-1-piperazinyl)-10H-thieno(2,3-b)(1,5)benzodiazepine for the treatment of fungal dermatitis” (ELI LILLY AND COMPANY, priority 1995, dated 1997).

Data set [1] concerns apomorphine-induced climbing behavior. The following applies: mice; cited from earlier work.
The target of another data set is T1, 5-HT1C receptor (Homo sapiens, UniProt P28335).
T1 sequence (P28335 33-458): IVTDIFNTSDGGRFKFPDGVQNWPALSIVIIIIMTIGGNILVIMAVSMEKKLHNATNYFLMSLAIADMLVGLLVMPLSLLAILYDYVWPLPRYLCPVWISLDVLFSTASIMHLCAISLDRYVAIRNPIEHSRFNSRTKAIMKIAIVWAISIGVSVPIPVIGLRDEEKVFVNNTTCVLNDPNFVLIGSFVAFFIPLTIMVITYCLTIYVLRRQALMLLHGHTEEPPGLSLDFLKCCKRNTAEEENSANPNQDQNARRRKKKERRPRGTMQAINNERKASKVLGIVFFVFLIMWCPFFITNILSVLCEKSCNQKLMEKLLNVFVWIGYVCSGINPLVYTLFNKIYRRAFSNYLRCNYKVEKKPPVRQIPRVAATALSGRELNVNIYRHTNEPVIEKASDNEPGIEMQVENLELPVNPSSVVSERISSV
As to conditions: in vitro; cited from earlier work.

Data set [2] in a line: detection of radiolabelled compound in saliva. It is filed as in vivo. On the procedure: For example, in the treatment of adult humans, dosages of from about 5 to 20 mg per day may be used. A once a day dosage is normally sufficient, although divided doses may be administered. For treatment of fungal dermatitis in a human, a dose range of from about […], preferably 5 to 20 mg per day is suitable.

Data set [3] concerns conditioned avoidance response. As to conditions: rats; cited from earlier work.
Data set [4] in a line: double-blind, randomized, placebo and haloperidol-controlled clinical trial: occurrence of fungal dermatitis. Type of data set: in vivo. The following applies: 15 +/-2.5 mg/day vs haloperidol (15 +/- 5 mg/day), double-blind extension treatment phase, human subjects. How it is done:
Such effectiveness for the treatment, amelioration of fungal dermatitis was shown in the following clinical trial:
The study was a double-blind, randomized, parallel, placebo and haloperidol-controlled study of 55 human subjects. The study was conducted in 23 study centers throughout the United States and Canada. […] The acute phase lasted for 6 weeks with evaluations performed weekly followed by a double-blind extension phase of at least one year.

The test system of data set [5] is apomorphine-induced hypothermia. As to conditions: mice; cited from earlier work.

Regarding `Cc1cc2c(s1)Nc1ccccc1N=C2N1CCN(C)CC1` [2-methyl-4-(4-methyl-1-piperazinyl)-10H-thieno[2,3-b][1,5]benzodiazepine], the apomorphine-induced climbing behavior result in data set [1] was “antagonized”. In addition, the “activity at the 5-HT1C receptor” value on 5-HT1C receptor is recorded as “active”. In addition, the “detection in the saliva” value in data set [2] is listed as “can be detected in the saliva”. In addition, in data set [3], the conditioned avoidance response entry is recorded as “inhibits”. Besides, the “occurrence of fungal dermatitis compared with haloperidol” value in data set [4] is “statistically significantly less frequently”. Also, the apomorphine-induced hypothermia entry in data set [5] is reported as “antagonized”.
